Values joined by “and” are separate entries in the source; they are usually repeats but may differ in a detail not shown here. Equal values may be shown once. Read-outs that look alike come from different tables or passages of the source.
What was measured:
[1] = system: P. berghei-ANKA-GFP-LucCON liver stage parasites in HepG2-A16-CD81EGFP cells; test: P. berghei liver stage Pb-Luc assay, Method 1 (UCSD, 1536-well); on Pb-Luc signal, 1 uM, repeat 1: reference of the scale not given here; on Pb-Luc signal, 1 uM, repeat 2: reference of the scale not given here; on Pb-Luc signal, 1 uM, repeat 3: reference of the scale not given here; on Pb-Luc signal, 3 uM, repeat 1: reference of the scale not given here; on Pb-Luc signal, 3 uM, repeat 2: reference of the scale not given here; on Pb-Luc signal, 3 uM, repeat 3: reference of the scale not given here; format: cell-based, Plasmodium berghei; settings: for Max Resp (signal direction of the dose response): Decrease = decreasing P. berghei viability with dose, Increase = increasing signal, Inactive = no dose response; for activity at 1 µM / activity at 3 µM: 48 h, average of 2 wells, 1536-well plate; for activity at 1 µM: nominal 1 uM (10 mM stock), […] for 15 mM, 1.2 uM for 12 mM, 2 uM for 20 mM stock; for activity at 3 µM: nominal 3 uM (10 mM stock), 4.5 uM for 15 mM, 3.6 uM for 12 mM, 6 uM for 20 mM stock
in vitro = settings: human
[2] = system: Plasmodium falciparum Dd2 asexual blood stage parasites; test: microbe, parasite or virus in culture; design: species or system Plasmodium falciparum Dd2 in human erythrocytes; single determination (one 11-point concentration-response curve); settings: Plasmodium falciparum, DD2, Erythrocyte, 72 h
[3] = system: luciferase-expressing P. berghei liver stage parasites in HepG2 cells; test: Inhibition of liver-stage development assay (ILSDA), Method 2 (WRAIR, 96-well); format: cell-based, Plasmodium berghei; settings: for Max Resp (signal direction of the dose response): Method 2, Decrease = decreasing P. berghei viability with dose, Increase = increasing signal, Inactive = no dose response; for AC50: Plasmodium berghei; for Activity direction (Decrease / Inactive): P. berghei liver stage
[4] = system: T1, Plasmodium falciparum Dd2-attB-ScDHODH (transgenic line expressing yeast DHODH), asexual blood stages; test: organism not typed; design: replicate k of 3 (each line is one of three independent assays; the three lines of one compound and parasite line follow each other); settings: 72 h, n = 1
T1 construct: Dd2-attB-ScDHODH, the transgenic line that expresses yeast DHODH
Outline: (§1)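 The transgenic line overexpresses fumarate-dependent yeast DHODH, bypassing parasite mETC and ubiquinone-dependent parasite DHODH. A subset of compounds was run in three independent assays on both lines, and line differences were tested by two-sided Student's t-test.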

[5] = system: T2, Plasmodium falciparum Dd2-attB (parental line), asexual blood stages; test: microbe, parasite or virus in culture; design: replicate k of 3 (each line is one of three independent assays; the three lines of one compound and parasite line follow each other); settings: 72 h; n = 1
T2 construct: Dd2-attB, the isogenic parental line
Outline: as §1

[6] = Plasmodium berghei, repeat 1, read-out: Pb-Luc signal, 1 uM, repeat 1
[7] = Plasmodium berghei, repeat 2, read-out: Pb-Luc signal, 1 uM, repeat 2
[8] = Plasmodium berghei, repeat 3, read-out: Pb-Luc signal, 1 uM, repeat 3
[9] = Plasmodium berghei, repeat 1, read-out: Pb-Luc signal, 3 uM, repeat 1
[10] = Plasmodium berghei, repeat 2, read-out: Pb-Luc signal, 3 uM, repeat 2
[11] = Plasmodium berghei, repeat 3, read-out: Pb-Luc signal, 3 uM, repeat 3
[12] = Plasmodium berghei, Method 1, Hill fit, 50% of maximum activity response, read-out: AC50
[13] = Plasmodium berghei, Method 1, log10 of molar AC50 from Hill fit, read-out: Log AC50 (converted)
[14] = HepG2-A16-CD81EGFP cells, uninfected
[15] = nominal 1 uM (10 mM stock), […] for 15 mM, 1.2 uM for 12 mM, 2 uM for 20 mM stock, average of 2 wells, repeat 2
[16] = nominal 3 uM (10 mM stock), 4.5 uM for 15 mM, 3.6 uM for 12 mM, 6 uM for 20 mM stock, average of 2 wells, repeat 2
[17] = HepG2, P. berghei liver stage, Method 2, dose response, read-out: AC50
[18] = HepG2, P. berghei liver stage, Method 2, dose response, read-out: Log AC50 (converted)

Structure (SMILES)	Max Resp (signal direction of the dose response) ([1]; Method 1)	activity at 1 µM [1, 6] [%]	activity at 1 µM [1, 7] [%]	activity at 1 µM [1, 8] [%]	activity at 3 µM [1, 9] [%]	activity at 3 µM [1, 10] [%]	activity at 3 µM [1, 11] [%]	AC50 [1, 12] [nM]	AC50 [1, 13] [nM]	viability at 48 h, 1 µM (in vitro; [14]) [%]	viability at 48 h, 3 µM (in vitro; [14]) [%]	HepG2 viability signal, 1 uM, repeat 2 (HepG2-A16-CD81EGFP cells; [15]) [%]	HepG2 viability signal, 3 uM, repeat 2 (HepG2-A16-CD81EGFP cells; [16]) [%]	AC50 ([2]; read-out: AC50) [nM]	Max Resp (signal direction of the dose response) [3]	Activity direction (Decrease / Inactive) ([3]; Method 2, dose response)	viability at 48 h, 3 µM (in vitro) [%]	AC50 [3, 17] [nM]	AC50 [3, 18] [nM]	other results
COc1ccc(-n2nc(C)c([C@@H]3C=C[C@@H](NCc4cccc(Cl)c4)C3)c2C)cc1 [NCGC00391691-01]	Decrease	41.3	40.5	39.6	11.5	13.5	12.4	1580	1580	104	102	103.31	96.15	1370	Decrease	–	–	–	–	AC50 ([1]; Method 1, Hill fit, 50% of maximum activity response, read-out: AC50): 2000 nM; Log AC50 (M) ([1]; Method 1, log10 of molar AC50 from Hill fit): -5.700 M; AC50 ([3]; HepG2, Method 2, Hill fit, 50% of maximum activity response, read-out: AC50): 1260 nM; AC50 ([3]; HepG2, Method 2, log10 of molar AC50 from Hill fit, read-out: Log AC50 (converted)): 1260 nM
CCCN1C(CC(C)C)=N[S+](=O)([O-])c2cc(NC(=O)c3ccccc3Cl)ccc21 [NCGC00473218-01]	–	–	–	–	–	–	–	–	–	–	–	–	–	–	–	Inactive	–	–	–	Individual replicates / Log AC50 (M) [4]: -5.0486 Log AC50 (M); AC50 ([4]; read-out: Individual replicates / Log AC50 (converted)): 7970 nM; Individual replicates / Log AC50 (M) [5]: -5.5486 Log AC50 (M) and -5.3986 Log AC50 (M) and -5.1986 Log AC50 (M)
COc1ccc(-c2ccc3ncc(Nc4ccc(C(N)=O)cc4)n3n2)cc1OC [NCGC00412552-01]	Inactive	38.8	64.3	74.5	2.42	48.9	27.1	–	–	100	105	102.54	100.89	2430	Inactive	–	–	–	–	–
COc1cc2c(cc1Oc1cccc(N(C)C)c1)NC(=O)C21CCN(c2cnccn2)CC1 [NCGC00416778-01]	Inactive	86.6	95.1	107	35	40	53.9	–	–	–	–	–	–	1500	–	Decrease	89.7	1000	1000	viability at 48 h, 1 µM (in vitro): 101%; HepG2 viability signal, 1 uM, repeat 2 (HepG2-A16-CD81EGFP cells; human, 48 h, 1 µM): 94.98%; HepG2 viability signal, 3 uM, repeat 2 (HepG2-A16-CD81EGFP cells; human, 48 h, 3 µM): 87.34%
Cc1ccccc1[S+](=O)([O-])N1CCCC(CCC(=O)NCCN(C)C2CCCCC2)C1 (centres unmarked) [NCGC00425745-01]	–	72	61	64.9	42	57.8	54.8	1780	1780	112	109	–	–	–	–	Decrease	–	562	562	HepG2 viability signal, 1 uM, repeat 2 (HepG2-A16-CD81EGFP cells): 108.18%; HepG2 viability signal, 3 uM, repeat 2 (HepG2-A16-CD81EGFP cells): 103.93%; AC50 [2]: 8410 nM
CCC(CC)c1cc([C@H]2CN3CC[C@H]2C[C@@H]3CNC(=O)COc2ccccc2)nc(-c2ccncc2)n1 [NCGC00420983-01]	Decrease	55.4	47	38	33.3	38.2	41	–	–	102	101	97.05	–	1500	–	Inactive	101	–	–	–

— article PMC7822874, “Chemoprotective antimalarials identified through quantitative high-throughput screening of Plasmodium blood and liver stage parasites” (Scientific Reports, 2021)
